Measured values published in patent publication US12540150B1, “Fluorogenic probe using a Mislow-Evans rearrangement for real-time imaging of hydrogen peroxide” (University of Pittsburgh—Of the Commonwealth System of …, priority 2020, dated 2026).
“And” between values parts separate entries of the source, which are not always exact repeats. Identical values can stand only once.

Legend:
[1] = Kinetics of the reaction of 1 with H2O2
[2] = Selectivity of 1: reaction with ·OH; conditions: for Fluorescence: 40 min minus 0 min
Experimental: The reactivity of 1 with ·OH was also investigated. ·OH was generated through the reaction of FeSO4·7H2O with H2O2. A solution of 100 μM 1 in ethanol (20 μL) was added to 5:95 methanol/50 mM phosphate pH 7 buffer (140 μL). Water or 104 U/mL catalase (20 μL) was added to the mixture. FeSO4·7H2O (27.4 mg) was added to ultrapure water (2.00 mL). This solution was diluted to 20 μM, 200 μM, and 2.00 mM. H2O2 was diluted to 200 μM and 2.00 mM. Equal volumes of FeSO4·7H2O solution and H2O2 were added together, and an aliquot (20 μL) was immediately transferred to the solution containing 1. The fluorescence intensity was measured immediately and again after incubation at 25° C. for 40 min. […] The Fluorescence values in Table 8 are the fluorescence at 40 min minus the fluorescence at 0 min.

[3] = Selectivity of 1: reaction with NO·; conditions: for Fluorescence: 15 min minus 0 min
Experimental: The probe 1 was also exposed to NO· at various concentrations. A NO· solution was generated by the addition of H2SO4 to NaNO2. A round-bottom flask containing a saturated solution of NaNO2 was connected to a series of three bubblers and one Erlenmeyer flask; the first two bubblers contained 30% NaOH, and the third contained ultrapure water. The flask contained ultrapure water (10 mL). The solutions were degassed with argon for 30 min. Then a 2 M solution of H2SO4 (1 mL) was added to the saturated NaNO2 to produce a 1.8 mM solution of NO· (assuming saturation at 25° C.) in the flask. A solution of 10 μM 1 in DMSO (20 μL) was added to 5:95 acetonitrile/50 mM pH 7 potassium phosphate buffer (160 μL). The NO· solution (20 μL) was then added to the mixture containing 1. The fluorescence was measured immediately and again after 15 min at 25° C. Similar results as the results for NO2^− and NO3^− were obtained for NO· (FIG. 22 and Table 13). The data in Table 13 is the fluorescence at 15 min minus the fluorescence at 0 min.

[4] = Stability of 1 under ambient conditions by 1H NMR; type: physicochemical; conditions: room temperature, in air
Excerpt: Since organic selenides are prone to oxidation in air, the stability of 1 under ambient conditions was investigated. To study the stability of 1, the ^1H NMR spectra of 1 in DMSO-d6 were obtained at specified intervals (days 1, 7, 14, 21, 30 and 60). The solution was left at room temperature and in air throughout the entire period.
[drawing 26] were observed. […] Even so, the compound was quite resistant to oxidative decomposition up to 60 days as manifested by the presence of only less than 10% acrolein.

Oc1ccc2c(c1)Oc1cc(O/C=C/C[Se]c3ccccc3)ccc1[C@@]21OCc2ccccc21 [Compound 1, (S,E)-6′-((3-(Phenylselanyl)prop-1-en-1-yl)oxy)-3H-spiro[isobenzofuran-1,9′-xanthen]-3′-ol]
F-F0 (515 nm) ([1]; [H2O2] = 1.25 mM, 690 s): 616,203 and 663,123 and 679,640
F-F0 (515 nm) ([1]; [H2O2] = 1.25 mM, 750 s): 616,371 and 663,595 and 679,888
F-F0 (515 nm) ([1]; [H2O2] = 1.25 mM, 810 s): 614,783 and 663,765 and 683,016
F-F0 (515 nm) ([1]; [H2O2] = 1.25 mM, 870 s): 614,819 and 662,173 and 685,799
F-F0 (515 nm) ([1]; [H2O2] = 2.5 mM, 30 s): 425,024 and 405,551 and 398,309
[1] ([1]; [H2O2] = 2.5 mM, 30 s): 0.6285 µM and 0.6785 µM and 0.6971 µM
F-F0 (515 nm) ([1]; [H2O2] = 2.5 mM, 90 s): 539,467 and 612,814 and 630,136
F-F0 (515 nm) ([1]; [H2O2] = 2.5 mM, 150 s): 601,940 and 657,981 and 671,946
F-F0 (515 nm) ([1]; [H2O2] = 2.5 mM, 210 s): 627,168 and 666,435 and 680,181
F-F0 (515 nm) ([1]; [H2O2] = 2.5 mM, 270 s): 636,230 and 665,190 and 679,366
F-F0 (515 nm) ([1]; [H2O2] = 2.5 mM, 330 s): 638,753 and 666,173 and 674,138
F-F0 (515 nm) ([1]; [H2O2] = 2.5 mM, 390 s): 641,141 and 663,899 and 664,993
F-F0 (515 nm) ([1]; [H2O2] = 2.5 mM, 450 s): 640,270 and 661,893 and 664,416
F-F0 (515 nm) ([1]; [H2O2] = 2.5 mM, 510 s): 639,383 and 659,509 and 664,003
F-F0 (515 nm) ([1]; [H2O2] = 2.5 mM, 570 s): 637,346 and 658,746 and 663,104
F-F0 (515 nm) ([1]; [H2O2] = 2.5 mM, 630 s): 637,422 and 656,826 and 661,222
F-F0 (515 nm) ([1]; [H2O2] = 2.5 mM, 690 s): 636,174 and 654,911 and 659,002
F-F0 (515 nm) ([1]; [H2O2] = 2.5 mM, 750 s): 634,294 and 654,494 and 657,410
F-F0 (515 nm) ([1]; [H2O2] = 2.5 mM, 810 s): 631,953 and 653,606 and 654,988
F-F0 (515 nm) ([1]; [H2O2] = 2.5 mM, 870 s): 631,346 and 651,140 and 655,338
reaction with FeSO4 or ·OH [2]: neither FeSO4 nor the ·OH reacted with the probe
Fluorescence ([2]; catalase, FeSO4 0 μM, 0 μM H2O2): 31,506 and 41,340 and 38,159
Fluorescence ([2]; catalase, FeSO4 1 μM, 0 μM H2O2): 28,688 and 24,359 and 45,310
Fluorescence ([2]; catalase, FeSO4 1 μM, 100 μM H2O2): 38,285 and 34,591 and 26,790
Fluorescence ([2]; catalase, FeSO4 10 μM, 0 μM H2O2): 24,822 and 33,920 and 47,376
Fluorescence ([2]; catalase, FeSO4 10 μM, 100 μM H2O2): 32,300 and 42,724 and 50,635
Fluorescence ([2]; catalase, FeSO4 100 μM, 0 μM H2O2): 35,828 and 18,194 and 20,321
Fluorescence ([2]; catalase, FeSO4 100 μM, 10 μM H2O2): 20,486 and 26,765 and 15,423
Fluorescence ([2]; catalase, FeSO4 100 μM, 100 μM H2O2): 46,232 and 46,921 and 52,666
Fluorescence ([2]; no additive, FeSO4 0 μM, 0 μM H2O2): 50,173 and 48,124 and 44,143
Fluorescence ([2]; no additive, FeSO4 0 μM, 10 μM H2O2): 43,929 and 46,186 and 43,989
Fluorescence ([2]; no additive, FeSO4 0 μM, 100 μM H2O2): 85,271 and 94,742 and 95,713
Fluorescence ([2]; no additive, FeSO4 1 μM, 0 μM H2O2): 44,775 and 42,847 and 41,775
Fluorescence ([2]; no additive, FeSO4 1 μM, 10 μM H2O2): 49,425 and 47,262 and 44,251
Fluorescence ([2]; no additive, FeSO4 1 μM, 100 μM H2O2): 86,594 and 103,905 and 91,684
Fluorescence ([2]; no additive, FeSO4 10 μM, 0 μM H2O2): 43,299 and 42,365 and 40,214
Fluorescence ([2]; no additive, FeSO4 10 μM, 10 μM H2O2): 42,933 and 40,908 and 38,283
Fluorescence ([2]; no additive, FeSO4 10 μM, 100 μM H2O2): 91,049 and 90,712 and 94,948
Fluorescence ([2]; no additive, FeSO4 100 μM, 0 μM H2O2): 32,709 and 41,351 and 31,615
Fluorescence ([2]; no additive, FeSO4 100 μM, 10 μM H2O2): 56,260 and 46,281 and 43,358
Fluorescence ([2]; no additive, FeSO4 100 μM, 100 μM H2O2): 99,384 and 99,391 and 95,778
reaction with NO· [3]: did not react
Fluorescence ([3]; 0 μM NO· or H2O2, pH 7, 25° C.): 4,567 and 5,018 and 6,300
Fluorescence ([3]; 0.1 μM NO·): 5,344 and 5,827 and 5,393
Fluorescence ([3]; 1 μM NO·): 6,268 and 5,961 and 5,430
Fluorescence ([3]; 10 μM NO·): 6,104 and 6,207 and 5,735
half-life ([4]; DMSO-d6 solution, read-out: half-life of cis-trans isomerization of the enol ether (converted)): 60 days
acrolein present (oxidative decomposition) ([4]; [D6]DMSO, up to 60 days): less than 10%
